How the values were obtained:
[1] = Growth inhibition of human IGROV1 cells incubated for 48 hrs by sulforhodamine B assay; format: functional; conditions: IGROV-1, 48 h
[2] = system: T47D; assay: Growth inhibition of human T47D cells incubated for 48 hrs by sulforhodamine B assay; format: functional
[3] = Selectivity ratio of IC50 for human GM00637 cells to IC50 for human DU145 cells; format: ADME, cell-based; conditions: GM00637 cells versus DU145 cells, read-out: Ratio IC50
[4] = Growth inhibition of human HCT116 cells incubated for 48 hrs by sulforhodamine B assay; format: functional; conditions: HCT-116, 48 h
[5] = Growth inhibition of human PC3 cells incubated for 48 hrs by sulforhodamine B assay; format: functional; conditions: PC-3, 48 h
[6] = Growth inhibition of human OVCAR8 cells incubated for 48 hrs by sulforhodamine B assay; format: functional; conditions: OVCAR-8, 48 h
[7] = system: CCRF-CEM; assay: Growth inhibition of human CCRF-CEM cells incubated for 48 hrs by sulforhodamine B assay; format: functional
[8] = Growth inhibition of human SF295 cells incubated for 48 hrs by sulforhodamine B assay; format: functional; conditions: SF-295, 48 h
[9] = Growth inhibition of human UACC62 cells incubated for 48 hrs by sulforhodamine B assay; format: functional; conditions: UACC-62, 48 h
[10] = Growth inhibition of human HCT15 cells incubated for 48 hrs by sulforhodamine B assay; format: functional; conditions: HCT-15, 48 h
[11] = Growth inhibition of human SNB75 cells incubated for 48 hrs by sulforhodamine B assay; format: functional; conditions: SNB-75, 48 h
[12] = Growth inhibition of human TK10 cells incubated for 48 hrs by sulforhodamine B assay; format: functional; conditions: TK-10, 48 h
[13] = system: MDA-MB-231; assay: Growth inhibition of human MDA-MB-231/ATCC cells incubated for 48 hrs by sulforhodamine B assay; format: functional; conditions: MDA-MB-231, 48 h
[14] = system: A549; assay: Growth inhibition of human A549/ATCC cells incubated for 48 hrs by sulforhodamine B assay; format: functional; conditions: A549, 48 h
[15] = Growth inhibition of human RXF393 cells incubated for 48 hrs by sulforhodamine B assay; format: functional; conditions: RXF 393, 48 h
[16] = Growth inhibition of human UACC257 cells incubated for 48 hrs by sulforhodamine B assay; format: functional; conditions: UACC-257, 48 h
[17] = system: ACHN; assay: Growth inhibition of human ACHN cells incubated for 48 hrs by sulforhodamine B assay; format: functional
[18] = Growth inhibition of human MOLT4 cells incubated for 48 hrs by sulforhodamine B assay; format: functional; conditions: MOLT-4, 48 h
[19] = system: NCI-H460; assay: Growth inhibition of human NCI-H460 cells incubated for 48 hrs by sulforhodamine B assay; format: functional; conditions: NCI-H460, 48 h
[20] = system: A498; assay: Growth inhibition of human A498 cells incubated for 48 hrs by sulforhodamine B assay; format: functional; conditions: A498, 48 h
[21] = system: KM12; assay: Growth inhibition of human KM12 cells incubated for 48 hrs by sulforhodamine B assay; format: functional; conditions: KM12, 48 h
[22] = system: NCI/ADR-RES; assay: Growth inhibition of human NCI/ADR-RES cells incubated for 48 hrs by sulforhodamine B assay; format: functional
[23] = system: SK-MEL-5; assay: Growth inhibition of human SK-MEL-5 cells incubated for 48 hrs by sulforhodamine B assay; format: functional; conditions: SK-MEL-5, 48 h
[24] = Growth inhibition of human HL-60(TB) cells incubated for 48 hrs by sulforhodamine B assay; format: functional; conditions: HL-60, 48 h
[25] = Growth inhibition of human HOP62 cells incubated for 48 hrs by sulforhodamine B assay; format: functional; conditions: HOP-62, 48 h
[26] = system: HT-29; assay: Growth inhibition of human HT-29 cells incubated for 48 hrs by sulforhodamine B assay; format: functional; conditions: HT-29, 48 h
[27] = Growth inhibition of human SKOV3 cells incubated for 48 hrs by sulforhodamine B assay; format: functional; conditions: SK-OV-3, 48 h
[28] = system: SK-MEL-2; assay: Growth inhibition of human SK-MEL-2 cells incubated for 48 hrs by sulforhodamine B assay; format: functional; conditions: SK-MEL-2, 48 h
[29] = Growth inhibition of human LOXIMVI cells incubated for 48 hrs by sulforhodamine B assay; format: functional; conditions: LOX IMVI
[30] = Growth inhibition of human HOP92 cells incubated for 48 hrs by sulforhodamine B assay; format: functional; conditions: HOP-92, 48 h
[31] = system: MDA-MB-468; assay: Growth inhibition of human MDA-MB-468 cells incubated for 48 hrs by sulforhodamine B assay; format: functional; conditions: MDA-MB-468, 48 h
[32] = Growth inhibition of human SF268 cells incubated for 48 hrs by sulforhodamine B assay; format: functional; conditions: SF-268, 48 h
[33] = system: SK-MEL-28; assay: Growth inhibition of human SK-MEL-28 cells incubated for 48 hrs by sulforhodamine B assay; format: functional; conditions: SK-MEL-28, 48 h
[34] = read-out: pLC50 (the source's name) (converted)

**Q.** What does the source list for `O=c1ccc2nc(C(F)(F)F)nn(-c3ccccc3)c-2c1`?
**A.** GI50 [1]: 12 µM; CC50 [1, 34]: 55 µM; TGI ([1]; read-out: pTGI (converted)): 25.7 µM; GI50 [2]: 1700 nM; CC50 [2, 34]: > 100 µM; TGI ([2]; read-out: pTGI (converted)): 6.61 µM; selectivity ratio [3]: 2; GI50 [4]: 1620 nM; CC50 [4, 34]: 6.17 µM; TGI ([4]; read-out: pTGI (converted)): 3.16 µM; GI50 [5]: 10.7 µM; CC50 [5, 34]: 52.5 µM; TGI ([5]; read-out: pTGI (converted)): 23.4 µM; GI50 [6]: 4.17 µM; CC50 [6, 34]: > 100 µM; TGI ([6]; read-out: pTGI (converted)): 33.9 µM; GI50 [7]: 2340 nM; CC50 [7, 34]: > 100 µM; GI50 [8]: 22.9 µM; CC50 [8, 34]: > 100 µM; TGI ([8]; read-out: pTGI (converted)): 67.6 µM; GI50 [9]: 5.13 µM; CC50 [9, 34]: 43.7 µM; TGI ([9]; read-out: pTGI (converted)): 17.8 µM; GI50 [10]: 2290 nM; CC50 [10, 34]: 8.13 µM; TGI ([10]; read-out: pTGI (converted)): 3.39 µM; GI50 [11]: 13.2 µM; CC50 [11, 34]: 52.5 µM; TGI ([11]; read-out: pTGI (converted)): 26.3 µM; GI50 [12]: 1620 nM; CC50 [12, 34]: 5.89 µM; TGI ([12]; read-out: pTGI (converted)): 3.09 µM; GI50 [13]: 1910 nM; CC50 [13, 34]: 26.9 µM; TGI ([13]; read-out: pTGI (converted)): 5.62 µM; GI50 [14]: 19.5 µM; CC50 [14, 34]: 79.4 µM; TGI ([14]; read-out: pTGI (converted)): 38.9 µM; GI50 [15]: 1450 nM; CC50 [15, 34]: 5.37 µM; TGI ([15]; read-out: pTGI (converted)): 2820 nM; GI50 [16]: 1910 nM; CC50 [16, 34]: 8.51 µM; TGI ([16]; read-out: pTGI (converted)): 4.07 µM; GI50 [17]: 1170 nM; CC50 [17, 34]: 5.13 µM; TGI ([17]; read-out: pTGI (converted)): 2450 nM; GI50 [18]: 2140 nM; CC50 [18, 34]: > 100 µM; TGI ([18]; read-out: pTGI (converted)): 9.12 µM; GI50 [19]: 17.8 µM; CC50 [19, 34]: 74.1 µM; TGI ([19]; read-out: pTGI (converted)): 36.3 µM; GI50 [20]: 14.1 µM; CC50 [20, 34]: 52.5 µM; TGI ([20]; read-out: pTGI (converted)): 26.9 µM; GI50 [21]: 19.5 µM; CC50 [21, 34]: 70.8 µM; TGI ([21]; read-out: pTGI (converted)): 37.2 µM; GI50 [22]: 53.7 µM; CC50 [22, 34]: > 100 µM; TGI ([22]; read-out: pTGI (converted)): 64.6 µM; GI50 [23]: 7.76 µM; CC50 [23, 34]: 47.9 µM; TGI ([23]; read-out: pTGI (converted)): 20.9 µM; GI50 [24]: 1200 nM; CC50 [24, 34]: > 100 µM; TGI ([24]; read-out: pTGI (converted)): 4.27 µM; GI50 [25]: 7.94 µM; CC50 [25, 34]: 83.2 µM; TGI ([25]; read-out: pTGI (converted)): 27.5 µM; GI50 [26]: 2630 nM; CC50 [26, 34]: > 100 µM; GI50 [27]: 15.1 µM; CC50 [27, 34]: > 100 µM; TGI ([27]; read-out: pTGI): > 100 µM; GI50 [28]: 3.63 µM; CC50 [28, 34]: 58.9 µM; TGI ([28]; read-out: pTGI (converted)): 15.5 µM; GI50 [29]: 1580 nM; CC50 [29, 34]: 6.61 µM; TGI ([29]; read-out: pTGI (converted)): 3.24 µM; GI50 [30]: 1380 nM; CC50 [30, 34]: 6.17 µM; TGI ([30]; read-out: pTGI (converted)): 2950 nM; GI50 [31]: 1070 nM; CC50 [31, 34]: 8.32 µM; TGI ([31]; read-out: pTGI (converted)): 2950 nM; GI50 [32]: 15.1 µM; CC50 [32, 34]: 56.2 µM; TGI ([32]; read-out: pTGI (converted)): 28.8 µM; GI50 [33]: 1700 nM; CC50 [33, 34]: 6.31 µM; TGI ([33]; read-out: pTGI (converted)): 3.24 µM

— ChEMBL document CHEMBL3813672, “Discovery of anti-cancer activity for benzo[1,2,4]triazin-7-ones: Very strong correlation to pleurotin and thioredoxin reductase inhibition” (Bioorg Med Chem, 2016)
